One series relates to rats. Kind of series: Acute toxicity test on rats. It is filed as in vivo, rats (Lewis). The note with it: 500 μg intraperitoneally three times in a week. The method, then: A PBS solution of 500 μg of the peptide described in Example 1 was intraperitoneally administered to six-week-old female rats (Lewis, purchased from Nippon SLC) three times in a week. […] Neither were the rats observed to have a poor coat of fur or any abnormal behavior during the test.

A further series deals with rat bone marrow cells. Kind of series: Cytotoxicity test in vitro, rat bone marrow cells (colony count, Giemsa staining). The series is classed as cell-based, rats (Lewis). The note with it: 30 μg/ml, seven days. From the text: Femurs were aseptically taken out of six-week-old female rats (Lewis, purchased from Nippon SLC). Both ends of the femurs were cut off. Then bone marrow was extruded into centrifugal tubes by means of Eagle's MEM containing 10% of fetal bovine serum using an injection syringe with a 21 G injection needle. The bone marrow cells were sufficiently dispersed with a pipette and filtered through a 40 μm filter to remove agglutinations. The resulting bone marrow cells were centrifuged with Eagle's MEM containing 10% of fetal bovine serum three times (1200 rpm, 5 min.×3), and then the number of cells was counted. The bone marrow cells were diluted with Alpha MEM containing 10% of fetal bovine serum so that relatively large bone marrow cells were present in a concentration of 10^6/ml. The dilution was pipetted 10 ml in each culture flask having a culture area of 25 cm^2 and incubated at 37° C. in the presence of 5% CO2. […]
Twenty-four hours after the incubation was started, culture medium was removed and Alpha MEM containing 10% of fetal bovine serum and 30 μg/ml of the peptide described in Example 1 was added to the cells under culture. […] After seven days, the number of formed colonies of bone marrow cells was counted using Giemsa staining. […]

The subject of another series is C3H10T1/2 cells. Kind of series: Cytotoxicity test in vitro, C3H10T1/2 cells (protein concentration, BCA). It is filed as cell-based. The note with it: 100 μg/ml, six days. The method, then:
C3H10T1/2 cells were dispersed in Eagle's MEM containing 10% fetal bovine serum, pipetted on a 96-well culture plate, 3750 cells per well, and incubated at 37° C. in the presence of 5% CO2. Into the wells, a PBS solution of the peptide described in Example 1 was added so that the resulting concentration became 100 μg/ml, followed by incubation under the same conditions for six days. Then the culture medium was removed and a cytolytic solution (0.1M Tris-HCl buffer containing 1% Triton X-100, pH 9) was added to dissolve cells. Then the concentration of protein was determined using BCA reagent (produced by Funakoshi Kabushiki Kaisha).

Data on one compound can be found in patent US7049293B2, “Peptide and osteogenetic accelerator” (Kyocera Corporation, priority 1998, dated 2006).

Residues, ends and D or L forms follow the SMILES beside them.

The compound `CC[C@H](C)[C@H](NC(=O)[C@H](C)NC(=O)[C@H](CO)NC(=O)[C@H](CC(C)C)NC(=O)[C@H](CCC(=O)O)NC(=O)[C@@H](NC(=O)[C@@H]1CCCN1C(=O)[C@@H](NC(=O)[C@H](CS)NC(=O)[C@H](CS)NC(=O)[C@H](C)NC(=O)[C@H](CCCCN)NC(=O)[C@@H]1CCCN1C(=O)[C@@H](NC(=O)[C@H](CCCCN)NC(=O)[C@H](CO)NC(=O)[C@H](CC(N)=O)NC(=O)[C@@H](NC(=O)[C@H](CO)NC(=O)[C@@H](N)CC(N)=O)C(C)C)[C@@H](C)CC)C(C)C)[C@@H](C)O)C(=O)O` [Example 1] (H-NSVNSKIPKACCVPTELSAI-OH) came in with an increase in weight in the series on rats (after a week, n=6, PBS control 23±5) of 25 ± 6 g. Besides, the “acute toxicity (conclusion)” value in the series on rats (no poor coat of fur or abnormal behavior) is “no significant acute toxicity”. The “number of formed colonies of bone marrow cells” value with rat bone marrow cells (average per flask, PBS control 89) turned out to be 101. Also, the “cytotoxicity (conclusion)” value in the series with rat bone marrow cells (rat bone marrow cells) and with C3H10T1/2 cells (C3H10T1/2 cells) was “did not have cytotoxicity” in each case. This compound returned a concentration of protein in the series with C3H10T1/2 cells (n=12, PBS control 0.07±0.03) of 120 ± 20 µg/mL.
